Measurements from patent publication US20140135221A1, “Desiccant and Defoliant Composition for Crops” (NIHON NOHYAKU CO., LTD, priority 2011, published 2014).

Tested on: seed potatoes (variety: danshaku)
Experiment: Desiccation and defoliation effect on potted potato plants in greenhouse (Test Example 1)
Format: in vivo
Conditions: potato foliage; for desiccation and defoliation effect, 4 DAT: 4 days after treatment; for desiccation and defoliation effect, 7 DAT: 7 days after treatment; for desiccation and defoliation effect, 10 DAT: 10 days after treatment; for desiccation and defoliation effect, 16 DAT: 16 days after treatment
Method: In 5100-ml plastic pots filled up with soil (clay loam), seed potatoes (variety: danshaku) were planted and cultivated in a greenhouse. When the foliage was fully developed, specifically, at 30 days after flowering, the test plants were treated with the predetermined effective dosage (expressed as the amounts of active ingredients in g/ha) of the composition of the present invention in a liquid form, and further cultivated in the greenhouse. In the period from 4 days to 16 days after the treatment, the desiccation effect was surveyed and the herbicidal effect was evaluated according to the criterion described below.
Regarding the criterion for evaluating the desiccation and defoliation effect, the extent of desiccation and defoliation was graded from 0% (no effect) to 100% (completely desiccated).

SMILES	desiccation and defoliation effect, 4 DAT (dosage 32 g.a.i./ha) [%]	desiccation and defoliation effect, 7 DAT (dosage 32 g.a.i./ha) [%]	desiccation and defoliation effect, 10 DAT (dosage 32 g.a.i./ha) [%]	desiccation and defoliation effect, 16 DAT (dosage 32 g.a.i./ha) [%]	desiccation and defoliation effect, 4 DAT (dosage 64 g.a.i./ha) [%]	desiccation and defoliation effect, 7 DAT (dosage 64 g.a.i./ha) [%]	desiccation and defoliation effect, 10 DAT (dosage 64 g.a.i./ha) [%]	desiccation and defoliation effect, 16 DAT (dosage 64 g.a.i./ha) [%]	desiccation and defoliation effect, 4 DAT (dosage 10 g.a.i./ha) [%]	desiccation and defoliation effect, 7 DAT (dosage 10 g.a.i./ha) [%]	desiccation and defoliation effect, 10 DAT (dosage 10 g.a.i./ha) [%]	desiccation and defoliation effect, 16 DAT (dosage 10 g.a.i./ha) [%]	desiccation and defoliation effect, 4 DAT (dosage 20 g.a.i./ha) [%]	desiccation and defoliation effect, 7 DAT (dosage 20 g.a.i./ha) [%]	desiccation and defoliation effect, 10 DAT (dosage 20 g.a.i./ha) [%]	desiccation and defoliation effect, 16 DAT (dosage 20 g.a.i./ha) [%]
Cc1nn(-c2cc(CC(Cl)C(=O)O)c(Cl)cc2F)c(=O)n1C(F)F (stereo not shown) [Carfentrazone]	18	22	33	40	45	52	58	70								
CCOC(=O)COc1cc(-c2nn(C)c(OC(F)F)c2Cl)c(F)cc1Cl [Pyraflufen-ethyl]									38	42	45	58	48	50	55	68
